Measured values published in paper PMC11272826, “Metabolism of alcohol ethoxylates (AEs) in rat, hamster, and human hepatocytes and liver S9: a pilot study for metabolic stability, metabolic pathway, and metabolites identification in vitro and in silico” (Archives of Toxicology, 2024).

Tests used:
adult males = test system: adult males; set-up: method as in Drotman [1980]; conditions: ref Drotman [1980], cited from earlier work; for Amounts in the blood / Radioactivity recovered after 144 h in urine, feces, and air: human males, 50 mg capsule; for Excreted within the first 24 h: radiolabeled, human male volunteers
[1] = Metabolite profiling by LC-MS in liver S9
Excerpt: (§1) Calibration curves were generated using an external standard.

[2] = Metabolic stability in liver S9 fraction (disappearance, half-life, CLint); conditions: for microsomal CLint at 1 µM / half-life at 1 µM / microsomal CLint at 10 µM / half-life at 10 µM: human; for half-life at 10 µM: pooled liver S9, pH 7.4, Half-lives t1/2, Liver S9, 10 μM
[3] = as above; conditions: for Relative LC/MS peak area: with cofactors, 60 min
Method: as §1
Intrinsic in vitro clearance was calculated as follows: […]

hamster hepatocytes [4] = experiment: Metabolite profiling by LC-MS in hepatocytes; conditions: for Number of metabolites detected: hamster hepatocytes
Method: (§2) The hepatocytes were thawed and re-suspended in Celsis InVitro KHB medium (pH 7.4). […] The samples were collected and stored at − 20 °C for further analysis.
(§3) The in vitro metabolism of the five individual homologue AEs (i.e. C8EO4, C10EO5, C12EO4, C16EO8, and C18EO3) was analyzed by liquid chromatography–mass spectrometry (LC–MS). The UPLC-Q-Exactive Orbitrap MS system consisted of a Thermo Vanquish Horizon UHPLC with an autosampler, vacuum degasser, photodiode array (PDA) detector (210–500 nm), and column oven coupled to a Q-Exactive Orbitrap Focus mass spectrometer (Thermo Fisher Scientific, Waltham, MA, USA). The analytical column used was a Waters Acquity BEH C8 2.1 × 50 mm with 1.7 particle size (Waters Corp, Milford, MA, USA). The temperature of the column oven was 40 °C, and the injection volume was 4 μl. The aqueous eluent (A) was 0.1% formic acid (B) was acetonitrile. […] The eluent flow rate was 0.5 ml/min and the flow was directed to the MS through a PDA detector. The data acquisition was performed using positive Electrospray Ionization (ESI+) polarity with a capillary voltage of 3000 V. Capillary temperature was 320 °C and auxiliary gas temperature was 500 °C. The mass spectrometer was operated in the data-dependent MS2 mode, which acquires full-scan MS and MS/MS fragment ion data in the same run. Scan was performed with a resolution of 35,000 (full width at half maximum at m/z 200), while an Automated Gain Control target of a million ions, maximum injection time of 100 ms, and a scan range of 100–1000 m/z were used. […] Nitrogen was used as a sheath gas with 50 units, auxiliary gas with 10 units and as a sweep gas with 5 units. Ion chromatograms were extracted from the total ion chromatograms using calculated monoisotopic accurate masses with 5 mDa window. Calibration curves were generated using an external standard. The data were processed with Thermo Xcalibur 4.1.31.9 software.

rat hepatocytes [5] = experiment: Metabolite profiling by LC-MS in hepatocytes; conditions: for Number of metabolites detected: rat hepatocytes
Method: as §2, §3

human hepatocytes [6] = experiment: Metabolite profiling by LC-MS in hepatocytes; conditions: for Number of metabolites detected: human hepatocytes
Method: as §2, §3

[7] = test system: female Colworth Wistar rats; set-up: method as in Unilever [1978]; conditions: 14C-labelled, oral, rat, ref Unilever [1978], cited from earlier work; for Total recovery in urine, feces, air, and carcass of the administered compound: 4 days
rat hepatocytes [8] = experiment: Metabolic stability in cryopreserved hepatocytes (disappearance, half-life, CLint); conditions: rat hepatocytes
Method: (§4) The metabolic stability assay was performed in a 48-well plate format (duplicate with cells and single without cells).
as §2
(§5) The UPLC-Q-Exactive Orbitrap MS system consisted of a Thermo Vanquish Horizon UHPLC with an autosampler, vacuum degasser, photodiode array (PDA) detector (210–500 nm), and column oven coupled to a Q-Exactive Orbitrap Focus mass spectrometer (Thermo Fisher Scientific, Waltham, MA, USA). The analytical column used was a Waters Acquity BEH C8 2.1 × 50 mm with 1.7 particle size (Waters Corp, Milford, MA, USA). The temperature of the column oven was 40 °C, and the injection volume was 4 μl. The aqueous eluent (A) was 0.1% formic acid (B) was acetonitrile. […] The eluent flow rate was 0.5 ml/min and the flow was directed to the MS through a PDA detector. The data acquisition was performed using positive Electrospray Ionization (ESI+) polarity with a capillary voltage of 3000 V. Capillary temperature was 320 °C and auxiliary gas temperature was 500 °C. The mass spectrometer was operated in the data-dependent MS2 mode, which acquires full-scan MS and MS/MS fragment ion data in the same run. Scan was performed with a resolution of 35,000 (full width at half maximum at m/z 200), while an Automated Gain Control target of a million ions, maximum injection time of 100 ms, and a scan range of 100–1000 m/z were used. […] Nitrogen was used as a sheath gas with 50 units, auxiliary gas with 10 units and as a sweep gas with 5 units. Ion chromatograms were extracted from the total ion chromatograms using calculated monoisotopic accurate masses with 5 mDa window. Calibration curves were generated using an external standard. The data were processed with Thermo Xcalibur 4.1.31.9 software.
(§6) The first-order rate constants k (min^−1) of the metabolism were obtained from the slope of time versus ln (% remaining) plots using Excel software. All time points (log-scale) were used in fitting the rate constant k based on visual inspection of the curves.
(§7) The in vitro half-life (t1/2) of the test compound(s) is defined as: t1/2=ln2/k
(§8) CLint,inc = k*V/(M), where V is the volume of the incubation and M is the number of cells or amount of S9 protein in the incubation.

[9] = as above; conditions: Sprague Dawley, rat, pooled cryopreserved hepatocytes, pH 7.4
Method: as §4, §2, §5, §6, §7, §8

[10] = Metabolite profiling by LC-MS in buffer (incubation without cells); conditions: 120 min
Method: as §2, §3

hamster hepatocytes [11] = experiment: Metabolic stability in cryopreserved hepatocytes (disappearance, half-life, CLint); conditions: hamster hepatocytes; for Initial concentration remaining after 120 min incubation: range over 1 and 10 µM
Method: as §4, §2, §5, §6, §7, §8

[12] = as above; conditions: Syrian, hamster, pooled cryopreserved hepatocytes, pH 7.4
Method: as §4, §2, §5, §6, §7, §8

human hepatocytes [13] = experiment: as above; conditions: human hepatocytes; for Initial concentration remaining after 120 min incubation: range over 1 and 10 µM
Method: as §4, §2, §5, §6, §7, §8

[14] = as above; conditions: human, pooled cryopreserved hepatocytes, pH 7.4
Method: as §4, §2, §5, §6, §7, §8

[15] = metabolite profile of C18EO3, 10 µM incubation, 60 min
[16] = pooled liver S9, pH 7.4, Half-lives t1/2, Liver S9, 1 μM
[17] = Sprague-Dawley, rat, pooled liver S9, pH 7.4
[18] = Syrian, hamster, pooled liver S9, pH 7.4
[19] = metabolite profile of C18EO3, 10 µM incubation, 120 min
[20] = metabolite profile of C12EO4, 10 µM incubation, 60 min
[21] = metabolite profile of C12EO4, 10 µM incubation, 120 min
[22] = metabolite profile of C8EO4, 10 µM incubation, 120 min
[23] = metabolite profile of C16EO8, 10 µM incubation, 60 min, with cofactors
[24] = metabolite profile of C16EO8, 10 µM incubation, 60 min, without cofactors
[25] = metabolite profile of C16EO8, 10 µM incubation, 120 min
[26] = Sprague-Dawley, rat, s9, pH 7.4

## CCCCCCCCCCCCCOCCOCCOCCOCCOCCOCCO [C13EO6]
Adult males
  Amounts in the blood: ≤ 1%
  Radioactivity recovered after 144 h in urine, feces, and air: 83–89%
  Excreted within the first 24 h: 75%

## CCCCCCCCCCCCCCCCCCOCCOCCOCCO [C18EO3]
[1]; human liver S9
  Number of metabolites detected: 11
[1]; [15]
  Percentage of the total peak area, Liver S9 with cofactors, Hamster: 79.9%
  Percentage of the total peak area, Liver S9 with cofactors, Human: 58.2%
  Percentage of the total peak area, Liver S9 with cofactors, Rat: 90.3%
  Percentage of the total peak area, Liver S9 without cofactors, Hamster: 100.0%
  Percentage of the total peak area, Liver S9 without cofactors, Human: 100.0%
  Percentage of the total peak area, Liver S9 without cofactors, Rat: 100.0%
[2]; pooled liver S9, pH 7.4
  microsomal CLint at 1 µM: 15.9 µL/min/mg
[2]; [16]
  half-life at 1 µM: ≥ 29 min
[3]; [17]
  half-life at 1 µM: 32 min
  microsomal CLint at 1 µM: 14.6 µL/min/mg
[3]; [18]
  half-life at 1 µM: 29 min
  microsomal CLint at 1 µM: 16.2 µL/min/mg
Hamster hepatocytes [4]
  Number of metabolites detected: 4
Hamster hepatocytes [4]; [19]
  Percentage of the total peak area, Hepatocytes, Hamster: 97.5%
Rat hepatocytes [5]; [19]
  Percentage of the total peak area, Hepatocytes, Rat: 98.3%
Rat hepatocytes [5]
  Number of metabolites detected: 4
Human hepatocytes [6]
  Number of metabolites detected: 9
Human hepatocytes [6]; [19]
  Percentage of the total peak area, Hepatocytes, Human: 8.9%

## CCCCCCCCCCCCOCCOCCOCCO [C12EO3]
[7]
  Total recovery in urine, feces, air, and carcass of the administered compound: ~100%
  14C in air: about 10%

## CCCCCCCCCCCCOCCOCCOCCOCCO [C12EO4]
[1]; [20]
  Percentage of the total peak area, Liver S9 with cofactors, Hamster: 18.1%
  Percentage of the total peak area, Liver S9 with cofactors, Human: 2.1%
  Percentage of the total peak area, Liver S9 with cofactors, Rat: 2.0%
  Percentage of the total peak area, Liver S9 without cofactors, Hamster: 98.4%
  Percentage of the total peak area, Liver S9 without cofactors, Human: 98.8%
  Percentage of the total peak area, Liver S9 without cofactors, Rat: 99.7%
[2]; human liver S9, 10 μM, with cofactors, 60 min
  Relative LC/MS peak area: 3%
[2]; pooled liver S9, pH 7.4
  microsomal CLint at 10 µM: 51.2 µL/min/mg
[2]
  half-life at 10 µM: 9 min
[3]; [17]
  half-life at 1 µM: 26 min
  half-life at 10 µM: 11 min
  microsomal CLint at 1 µM: 17.5 µL/min/mg
  microsomal CLint at 10 µM: 40.7 µL/min/mg
[3]; [18]
  half-life at 10 µM: 26 min
  microsomal CLint at 10 µM: 17.9 µL/min/mg
[3]; hamster liver S9, 10 μM
  Relative LC/MS peak area: 24%
[3]; rat liver S9, 10 μM
  Relative LC/MS peak area: 3%
Rat hepatocytes [8]; 10 μM, 120 min
  Relative LC/MS peak area: 12%
[9]
  half-life at 10 µM: 8.9 min
Hamster hepatocytes [4]; [21]
  Percentage of the total peak area, Hepatocytes, Hamster: 13.2%
Rat hepatocytes [5]; [21]
  Percentage of the total peak area, Hepatocytes, Rat: 12.7%
[10]; metabolite profile of C12EO4, 10 µM incubation without cells
  Percentage of the total peak area, Hepatocytes, Buffer: 79.1%
Hamster hepatocytes [11]; 10 μM, 120 min
  Relative LC/MS peak area: 11%
[12]
  half-life at 1 µM: 789 min
  half-life at 10 µM: 17 min
Human hepatocytes [13]; 10 μM, 120 min
  Relative LC/MS peak area: 40%
[14]
  half-life at 10 µM: 15 min
Human hepatocytes [6]
  Number of metabolites detected: 28
Human hepatocytes [6]; [21]
  Percentage of the total peak area, Hepatocytes, Human: 12.5%

## CCCCCCCCOCCOCCOCCOCCO [C8EO4]
[1]; hamster liver S9
  Number of metabolites detected: 20
[1]; human liver S9
  Number of metabolites detected: 17
[1]; rat liver S9
  Number of metabolites detected: 16
[2]; human liver S9, range over 1 and 10 µM
  Initial concentration remaining after 60 min incubation: 1–6%
[2]; pooled liver S9, pH 7.4
  microsomal CLint at 1 µM: 39.2 µL/min/mg
  microsomal CLint at 10 µM: 33.6 µL/min/mg
[2]; [16]
  half-life at 1 µM: 11.8 min
[2]
  half-life at 10 µM: 13.8 min
[3]; [17]
  half-life at 1 µM: 37.8 min
  half-life at 10 µM: 58.1 min
  microsomal CLint at 1 µM: 12.2 µL/min/mg
  microsomal CLint at 10 µM: 7.95 µL/min/mg
[3]; [18]
  half-life at 1 µM: 7.7 min
  half-life at 10 µM: 14.5 min
  microsomal CLint at 1 µM: 59.7 µL/min/mg
  microsomal CLint at 10 µM: 31.8 µL/min/mg
[3]; hamster liver S9, range over 1 and 10 µM
  Initial concentration remaining after 60 min incubation: 1–6%
[3]; rat liver S9, range over 1 and 10 µM
  Initial concentration remaining after 60 min incubation: 34–49%
Rat hepatocytes [8]; range over 1 and 10 µM
  Initial concentration remaining after 120 min incubation: 0.1–3%
[9]
  half-life at 1 µM: 3.2 min
  half-life at 10 µM: 3.6 min
Hamster hepatocytes [4]
  Number of metabolites detected: 22
Hamster hepatocytes [4]; [22]
  Percentage of the total peak area, Hepatocytes, Hamster: 0.1%
Rat hepatocytes [5]; [22]
  Percentage of the total peak area, Hepatocytes, Rat: 0.1%
Rat hepatocytes [5]
  Number of metabolites detected: 20
[10]; metabolite profile of C8EO4, 10 µM incubation without cells
  Percentage of the total peak area, Hepatocytes, Buffer: 99.8%
Hamster hepatocytes [11]
  Initial concentration remaining after 120 min incubation: 0.1–3%
[12]
  half-life at 1 µM: 4.3 min
  half-life at 10 µM: 6.5 min
Human hepatocytes [13]
  Initial concentration remaining after 120 min incubation: 0.1–3%
[14]
  half-life at 1 µM: 12.9 min
  half-life at 10 µM: 12 min
Human hepatocytes [6]
  Number of metabolites detected: 21
Human hepatocytes [6]; [22]
  Percentage of the total peak area, Hepatocytes, Human: 0.1%

## CCCCCCCCCCCCCCCCOCCOCCOCCOCCOCCOCCOCCOCCO [C16EO8]
[1]; hamster liver S9
  Number of metabolites detected: 33
[1]; human liver S9
  Number of metabolites detected: 33
[1]; [23]
  Liver S9 with cofactors, % Hamster (percentage of the total peak area): 82.7%
  Liver S9 with cofactors, % Human (percentage of the total peak area): 72.0%
  Liver S9 with cofactors, % Rat (percentage of the total peak area): 85.8%
[1]; [24]
  Liver S9 without cofactors, % Hamster (percentage of the total peak area): 97.4%
  Liver S9 without cofactors, % Human (percentage of the total peak area): 96.6%
  Liver S9 without cofactors, % Rat (percentage of the total peak area): 98.7%
[1]; rat liver S9
  Number of metabolites detected: 33
[2]; pooled liver S9, pH 7.4
  microsomal CLint at 1 µM: 3.33 µL/min/mg
[2]; [16]
  half-life at 1 µM: 139 min
[3]; [17]
  half-life at 1 µM: 16 min
  microsomal CLint at 1 µM: 29.6 µL/min/mg
[3]; [18]
  half-life at 1 µM: 118 min
  microsomal CLint at 1 µM: 3.92 µL/min/mg
[9]
  half-life at 1 µM: 6.6 min
  half-life at 10 µM: 9.2 min
Hamster hepatocytes [4]
  Number of metabolites detected: 32
Hamster hepatocytes [4]; [25]
  Hepatocytes, % Hamster (percentage of the total peak area): 10.6%
Rat hepatocytes [5]; [25]
  Hepatocytes, % Rat (percentage of the total peak area): 1.0%
Rat hepatocytes [5]
  Number of metabolites detected: 32
[10]; metabolite profile of C16EO8, 10 µM incubation, buffer without cells
  Hepatocytes, % Buffer (percentage of the total peak area): 29.7%
Hamster hepatocytes [11]
  Initial concentration remaining after 120 min incubation: 4–5%
[12]
  half-life at 1 µM: 27 min
  half-life at 10 µM: 30 min
Human hepatocytes [13]
  Initial concentration remaining after 120 min incubation: 11–36%
[14]
  half-life at 1 µM: 39 min
  half-life at 10 µM: 85 min
Human hepatocytes [6]
  Number of metabolites detected: 32
Human hepatocytes [6]; [25]
  Hepatocytes, % Human (percentage of the total peak area): 30.3%

## Cc1ncc2n1-c1ccc(Cl)cc1C(c1ccccc1F)=NC2 [midazolam, Midazolam, reference compound]
[2]; s9, pH 7.4
  half-life at 1 µM: < 6.3 min
  microsomal CLint at 1 µM: > 75 µL/min/mg
[3]; [26]
  half-life at 1 µM: 11.8 min
  microsomal CLint at 1 µM: 39.1 µL/min/mg
[3]; Syrian, hamster, s9, pH 7.4
  half-life at 1 µM: < 6.3 min
  microsomal CLint at 1 µM: > 75 µL/min/mg

## CCCCCCCCCCCCOCCOCCOCCOCCOCCOCCO [C12EO6]
Adult males
  Amounts in the blood: ≤ 1%
  Radioactivity recovered after 144 h in urine, feces, and air: 83–89%
  Excreted within the first 24 h: 75%
[7]
  Total recovery in urine, feces, air, and carcass of the administered compound: ~100%
  14C in air: about 10%
